Measurements published in patent publication US20240279218A1 (Hoffmann-La Roche Inc., priority 2016, published 2024).

Experiments:
h-GABA-A α5β3γ2 [1] = target: T1, h-GABA-A α5β3γ2 (Homo sapiens (Human), UniProt P18507+P31644); test: Two-electrode voltage clamp electrophysiology in Xenopus oocytes expressing GABAA receptors, modulation of GABA EC20 current; assay type: cell-based; conditions: Xenopus oocytes; for Efficacy (GABA) %: % modulation of GABA EC20 = 100*(Fold increase−1); for Fold increase h-GABA-A α5β3γ2 oocyte: GABA EC20, test compound at approx. 30 fold its Ki
Summary of the method: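 Values are % modulation of an EC20 GABA response, derived point by point from the ratio of compound-exposed versus control current traces (extremum taken, 100×(fold−1)). Recordings used oocytes injected with human α5, β3, γ2 mRNA, clamped at −80 mV at room temperature, at least 3 oocytes each.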

h-GABA-A α5β3γ2 [2] = target: T1, h-GABA-A α5β3γ2; test: [3H]flumazenil competition binding assay, membranes of HEK293 cells expressing human GABAA receptors; conditions: displacement of [3H]flumazenil 0.5 nM, HEK293 cells expressing human receptors, mean of two determinations; read-out: Ki h-GABA-A α5β3γ2
Summary of the method: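 Displacement of [3H]flumazenil from membranes of HEK293 cells transiently expressing human α5β3γ2 receptors, in Krebs-tris buffer pH 7.5. Incubation to equilibrium, 1 h at 4° C., then filtration and scintillation counting. Ki is the mean of two determinations.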

CCC[C@@H](CO)NC(=O)c1ccc(OCc2c(-c3cnc(C)c(F)c3)noc2C)nc1 [Example 145, 6-((3-(5-fluoro-6-methyl-3-pyridyl)-5-methyl-isoxazol-4-yl)methoxy)-N-((1S)-1-(hydroxymethyl)butyl)pyridine-3-carboxamide]
Efficacy (GABA) % (h-GABA-A α5β3γ2 [1]): 144% | Fold increase h-GABA-A α5β3γ2 oocyte (h-GABA-A α5β3γ2 [1]): 2.44 | Ki (h-GABA-A α5β3γ2 [2]): 29 nM

Cc1ccc(-c2noc(C)c2COc2ccc(C(=O)N[C@H]3CC[C@](C)(O)CC3)nn2)cn1 [Example 146]
Efficacy (GABA) % (h-GABA-A α5β3γ2 [1]): 78% | Fold increase h-GABA-A α5β3γ2 oocyte (h-GABA-A α5β3γ2 [1]): 1.78 | Ki (h-GABA-A α5β3γ2 [2]): 10 nM

Cc1ccc(-c2noc(C)c2COc2ccc(C(=O)NC(C)(CO)CO)nn2)cn1 [Example 147, N-(1,3-dihydroxy-2-methylpropan-2-yl)-6-((5-methyl-3-(6-methylpyridin-3-yl)isoxazol-4-yl)methoxy)pyridazine-3-carboxamide]
Efficacy (GABA) % (h-GABA-A α5β3γ2 [1]): 48% | Fold increase h-GABA-A α5β3γ2 oocyte (h-GABA-A α5β3γ2 [1]): 1.48 | Ki (h-GABA-A α5β3γ2 [2]): 9.6 nM

Cc1ccc(-c2noc(C)c2COc2ccc(C(=O)N[C@H]3CC[C@@](C)(O)CC3)nn2)cn1 [Example 148, N-((1s,4s)-4-hydroxy-4-methylcyclohexyl)-6-((5-methyl-3-(6-methylpyridin-3-yl)isoxazol-4-yl)methoxy)pyridazine-3-carboxamide]
Efficacy (GABA) % (h-GABA-A α5β3γ2 [1]): 77% | Fold increase h-GABA-A α5β3γ2 oocyte (h-GABA-A α5β3γ2 [1]): 1.77 | Ki (h-GABA-A α5β3γ2 [2]): 13.8 nM

Cc1ccc(-c2noc(C)c2COc2ccc(C(=O)N[C@H]3CC[C@H](O)CC3)nn2)cn1 [Example 153, trans-N-(4-hydroxycyclohexyl)-6-((5-methyl-3-(6-methylpyridin-3-yl)isoxazol-4-yl)methoxy)pyridazine-3-carboxamide]
Efficacy (GABA) % (h-GABA-A α5β3γ2 [1]): 84% | Fold increase h-GABA-A α5β3γ2 oocyte (h-GABA-A α5β3γ2 [1]): 1.84 | Ki (h-GABA-A α5β3γ2 [2]): 5.5 nM

CO[C@H]1CC[C@H](NC(=O)c2ccc(OCc3c(-c4ccc(C)nc4)noc3C)nn2)CC1 [Example 154, trans-N-(4-methoxycyclohexyl)-6-((5-methyl-3-(6-methylpyridin-3-yl)isoxazol-4-yl)methoxy)pyridazine-3-carboxamide]
Efficacy (GABA) % (h-GABA-A α5β3γ2 [1]): 97% | Fold increase h-GABA-A α5β3γ2 oocyte (h-GABA-A α5β3γ2 [1]): 1.97 | Ki (h-GABA-A α5β3γ2 [2]): 10 nM

Cc1ccc(-c2noc(C)c2COc2ccc(C(=O)N3CC4(C3)CC(F)(F)C4)nn2)cn1 [Example 155, (6,6-difluoro-2-azaspiro[3.3]heptan-2-yl)(6-((5-methyl-3-(6-methylpyridin-3-yl)isoxazol-4-yl)methoxy)pyridazin-3-yl)methanone]
Efficacy (GABA) % (h-GABA-A α5β3γ2 [1]): 46% | Fold increase h-GABA-A α5β3γ2 oocyte (h-GABA-A α5β3γ2 [1]): 1.46 | Ki (h-GABA-A α5β3γ2 [2]): 15.4 nM

Cc1ccc(-c2noc(C)c2COc2ccc(C(=O)NC3CCCC(O)C3)nn2)cn1 (stereo not drawn) [Example 156, N-(3-hydroxycyclohexyl)-6-((5-methyl-3-(6-methylpyridin-3-yl)isoxazol-4-yl)methoxy)pyridazine-3-carboxamide]
Efficacy (GABA) % (h-GABA-A α5β3γ2 [1]): 98% | Fold increase h-GABA-A α5β3γ2 oocyte (h-GABA-A α5β3γ2 [1]): 1.98 | Ki (h-GABA-A α5β3γ2 [2]): 7.8 nM

Cc1ccc(-c2noc(C)c2COc2ccc(C(=O)N3C4COCC3C4)nn2)cn1 [Example 157, 3-oxa-6-azabicyclo[3.1.1]heptan-6-yl(6-((5-methyl-3-(6-methylpyridin-3-yl)isoxazol-4-yl)methoxy)pyridazin-3-yl)methanone]
Efficacy (GABA) % (h-GABA-A α5β3γ2 [1]): 76% | Fold increase h-GABA-A α5β3γ2 oocyte (h-GABA-A α5β3γ2 [1]): 1.76 | Ki (h-GABA-A α5β3γ2 [2]): 6 nM

CO[C@H]1CC[C@@H](NC(=O)c2ccc(OCc3c(-c4ccc(C)nc4)noc3C)nn2)CC1 [Example 158, cis-N-(4-methoxycyclohexyl)-6-((5-methyl-3-(6-methylpyridin-3-yl)isoxazol-4-yl)methoxy)pyridazine-3-carboxamide]
Efficacy (GABA) % (h-GABA-A α5β3γ2 [1]): 79% | Fold increase h-GABA-A α5β3γ2 oocyte (h-GABA-A α5β3γ2 [1]): 1.79 | Ki (h-GABA-A α5β3γ2 [2]): 18.2 nM

Cc1onc(-c2ccc(Cl)nc2)c1COc1ccc(C(=O)NC2CCOCC2)nn1 [Example 159, 6-((3-(6-chloropyridin-3-yl)-5-methylisoxazol-4-yl)methoxy)-N-(tetrahydropyran-4-yl)pyridazine-3-carboxamide]
Efficacy (GABA) % (h-GABA-A α5β3γ2 [1]): 55% | Fold increase h-GABA-A α5β3γ2 oocyte (h-GABA-A α5β3γ2 [1]): 1.55 | Ki (h-GABA-A α5β3γ2 [2]): 23.7 nM

Cc1onc(-c2ccc(Cl)nc2)c1COc1ccc(C(=O)NC2(C)COC2)nn1 [Example 161, 6-((3-(6-chloropyridin-3-yl)-5-methylisoxazol-4-yl)methoxy)-N-(3-methyloxetan-3-yl)pyridazine-3-carboxamide]
Efficacy (GABA) % (h-GABA-A α5β3γ2 [1]): 60% | Fold increase h-GABA-A α5β3γ2 oocyte (h-GABA-A α5β3γ2 [1]): 1.6 | Ki (h-GABA-A α5β3γ2 [2]): 8 nM

Cc1onc(-c2ccc(Cl)nc2)c1COc1ccc(C(=O)NC2CC3(COC3)C2)nn1 [Example 162, 6-((3-(6-chloropyridin-3-yl)-5-methylisoxazol-4-yl)methoxy)-N-(2-oxaspiro[3.3]heptan-6-yl)pyridazine-3-carboxamide]
Efficacy (GABA) % (h-GABA-A α5β3γ2 [1]): 37% | Fold increase h-GABA-A α5β3γ2 oocyte (h-GABA-A α5β3γ2 [1]): 1.37 | Ki (h-GABA-A α5β3γ2 [2]): 11.2 nM

CO[C@H]1C[C@H](NC(=O)c2ccc(OCc3c(-c4ccc(C)nc4)noc3C)nn2)C1 [Example 163, trans-N-(3-methoxycyclobutyl)-6-((5-methyl-3-(6-methyl-3-pyridyl)isoxazol-4-yl)methoxy)pyridazine-3-carboxamide]
Efficacy (GABA) % (h-GABA-A α5β3γ2 [1]): 98% | Fold increase h-GABA-A α5β3γ2 oocyte (h-GABA-A α5β3γ2 [1]): 1.98 | Ki (h-GABA-A α5β3γ2 [2]): 8.6 nM

CO[C@H]1C[C@@H](NC(=O)c2ccc(OCc3c(-c4ccc(C)nc4)noc3C)nn2)C1 [Example 164, cis-N-(3-methoxycyclobutyl)-6-((5-methyl-3-(6-methyl-3-pyridyl)isoxazol-4-yl)methoxy)pyridazine-3-carboxamide]
Efficacy (GABA) % (h-GABA-A α5β3γ2 [1]): 95% | Fold increase h-GABA-A α5β3γ2 oocyte (h-GABA-A α5β3γ2 [1]): 1.95 | Ki (h-GABA-A α5β3γ2 [2]): 11.5 nM

Cc1ccc(-c2noc(C3CC3)c2COc2ccc(C(=O)NC3CCOCC3)nn2)nn1 [Example 165, 6-((5-cyclopropyl-3-(6-methylpyridazin-3-yl)isoxazol-4-yl)methoxy)-N-(tetrahydropyran-4-yl)pyridazine-3-carboxamide]
Efficacy (GABA) % (h-GABA-A α5β3γ2 [1]): 174% | Fold increase h-GABA-A α5β3γ2 oocyte (h-GABA-A α5β3γ2 [1]): 2.74 | Ki (h-GABA-A α5β3γ2 [2]): 2.6 nM

Cc1ccc(-c2noc(C)c2COc2ccc(C(=O)NC3CC4(C3)CC(F)(F)C4)nn2)cn1 [Example 167, N-(6,6-difluorospiro[3.3]heptan-2-yl)-6-((5-methyl-3-(6-methylpyridin-3-yl)isoxazol-4-yl)methoxy)pyridazine-3-carboxamide]
Efficacy (GABA) % (h-GABA-A α5β3γ2 [1]): 64% | Fold increase h-GABA-A α5β3γ2 oocyte (h-GABA-A α5β3γ2 [1]): 1.64 | Ki (h-GABA-A α5β3γ2 [2]): 19.1 nM

Cc1ccc(-c2noc(CF)c2COc2ccc(C(=O)NC3CCOCC3)nn2)cn1 [Example 168, 6-((5-(fluoromethyl)-3-(6-methylpyridin-3-yl)isoxazol-4-yl)methoxy)-N-(tetrahydropyran-4-yl)pyridazine-3-carboxamide]
Efficacy (GABA) % (h-GABA-A α5β3γ2 [1]): 102% | Fold increase h-GABA-A α5β3γ2 oocyte (h-GABA-A α5β3γ2 [1]): 2.02 | Ki (h-GABA-A α5β3γ2 [2]): 32.4 nM

Cc1ccc(-c2noc(C)c2COc2ccc(C(=O)N[C@H]3C[C@@H](OCC(F)F)C3)nn2)cn1 [Example 169, cis-N-3-((2,2-difluoroethoxy)cyclobutyl)-6-((5-methyl-3-(6-methylpyridin-3-yl)isoxazol-4-yl)methoxy)pyridazine-3-carboxamide]
Efficacy (GABA) % (h-GABA-A α5β3γ2 [1]): 66% | Fold increase h-GABA-A α5β3γ2 oocyte (h-GABA-A α5β3γ2 [1]): 1.66 | Ki (h-GABA-A α5β3γ2 [2]): 18.9 nM

Cc1ccc(-c2noc(C)c2COc2ccc(C(=O)N[C@H]3C[C@H](OCC(F)F)C3)nn2)cn1 [Example 170, trans-N-3-((2,2-difluoroethoxy)cyclobutyl)-6-((5-methyl-3-(6-methylpyridin-3-yl)isoxazol-4-yl)methoxy)pyridazine-3-carboxamide]
Efficacy (GABA) % (h-GABA-A α5β3γ2 [1]): 60% | Fold increase h-GABA-A α5β3γ2 oocyte (h-GABA-A α5β3γ2 [1]): 1.6 | Ki (h-GABA-A α5β3γ2 [2]): 8.8 nM

CCO[C@H]1C[C@@H](NC(=O)c2ccc(OCc3c(-c4ccc(C)nc4)noc3C)nn2)C1 [Example 171, cis-N-(3-ethoxycyclobutyl)-6-((5-methyl-3-(6-methylpyridin-3-yl)isoxazol-4-yl)methoxy)pyridazine-3-carboxamide]
Efficacy (GABA) % (h-GABA-A α5β3γ2 [1]): 72% | Fold increase h-GABA-A α5β3γ2 oocyte (h-GABA-A α5β3γ2 [1]): 1.72 | Ki (h-GABA-A α5β3γ2 [2]): 18.1 nM

CCO[C@H]1C[C@H](NC(=O)c2ccc(OCc3c(-c4ccc(C)nc4)noc3C)nn2)C1 [Example 172, trans-N-(3-ethoxycyclobutyl)-6-((5-methyl-3-(6-methylpyridin-3-yl)isoxazol-4-yl)methoxy)pyridazine-3-carboxamide]
Efficacy (GABA) % (h-GABA-A α5β3γ2 [1]): 65% | Fold increase h-GABA-A α5β3γ2 oocyte (h-GABA-A α5β3γ2 [1]): 1.65 | Ki (h-GABA-A α5β3γ2 [2]): 8.8 nM

Cc1ccc(-c2noc(C)c2COc2ccc(C(=O)N[C@H]3C[C@@H](OC(F)F)C3)nn2)cn1 [Example 173, cis-N-(3-(difluoromethoxy)cyclobutyl)-6-((5-methyl-3-(6-methylpyridin-3-yl)isoxazol-4-yl)methoxy)pyridazine-3-carboxamide]
Efficacy (GABA) % (h-GABA-A α5β3γ2 [1]): 68% | Fold increase h-GABA-A α5β3γ2 oocyte (h-GABA-A α5β3γ2 [1]): 1.68 | Ki (h-GABA-A α5β3γ2 [2]): 15.6 nM

Cc1ccc(-c2noc(C)c2COc2ccc(C(=O)N[C@H]3C[C@H](OC(F)F)C3)nn2)cn1 [Example 174, trans-N-(3-(difluoromethoxy)cyclobutyl)-6-((5-methyl-3-(6-methylpyridin-3-yl)isoxazol-4-yl)methoxy)pyridazine-3-carboxamide]
Efficacy (GABA) % (h-GABA-A α5β3γ2 [1]): 55% | Fold increase h-GABA-A α5β3γ2 oocyte (h-GABA-A α5β3γ2 [1]): 1.55 | Ki (h-GABA-A α5β3γ2 [2]): 8.8 nM

Cc1ccc(-c2noc(C)c2COc2ccc(C(=O)N[C@H]3C[C@H](OC4CC4)C3)nn2)cn1 [Example 175, trans-N-(3-cyclopropoxycyclobutyl)-6-((5-methyl-3-(6-methylpyridin-3-yl)isoxazol-4-yl)methoxy)pyridazine-3-carboxamide]
Efficacy (GABA) % (h-GABA-A α5β3γ2 [1]): 82% | Fold increase h-GABA-A α5β3γ2 oocyte (h-GABA-A α5β3γ2 [1]): 1.82 | Ki (h-GABA-A α5β3γ2 [2]): 10.1 nM
